Where two headings read alike, the source gives them in different places.
Target: Nav 1.7 (Homo sapiens (Human), UniProt Q15858)
Test: in-vitro Nav 1.7 PX (IC50)
Type: cell-based

Chain of Nav 1.7 (Q15858 whole entry): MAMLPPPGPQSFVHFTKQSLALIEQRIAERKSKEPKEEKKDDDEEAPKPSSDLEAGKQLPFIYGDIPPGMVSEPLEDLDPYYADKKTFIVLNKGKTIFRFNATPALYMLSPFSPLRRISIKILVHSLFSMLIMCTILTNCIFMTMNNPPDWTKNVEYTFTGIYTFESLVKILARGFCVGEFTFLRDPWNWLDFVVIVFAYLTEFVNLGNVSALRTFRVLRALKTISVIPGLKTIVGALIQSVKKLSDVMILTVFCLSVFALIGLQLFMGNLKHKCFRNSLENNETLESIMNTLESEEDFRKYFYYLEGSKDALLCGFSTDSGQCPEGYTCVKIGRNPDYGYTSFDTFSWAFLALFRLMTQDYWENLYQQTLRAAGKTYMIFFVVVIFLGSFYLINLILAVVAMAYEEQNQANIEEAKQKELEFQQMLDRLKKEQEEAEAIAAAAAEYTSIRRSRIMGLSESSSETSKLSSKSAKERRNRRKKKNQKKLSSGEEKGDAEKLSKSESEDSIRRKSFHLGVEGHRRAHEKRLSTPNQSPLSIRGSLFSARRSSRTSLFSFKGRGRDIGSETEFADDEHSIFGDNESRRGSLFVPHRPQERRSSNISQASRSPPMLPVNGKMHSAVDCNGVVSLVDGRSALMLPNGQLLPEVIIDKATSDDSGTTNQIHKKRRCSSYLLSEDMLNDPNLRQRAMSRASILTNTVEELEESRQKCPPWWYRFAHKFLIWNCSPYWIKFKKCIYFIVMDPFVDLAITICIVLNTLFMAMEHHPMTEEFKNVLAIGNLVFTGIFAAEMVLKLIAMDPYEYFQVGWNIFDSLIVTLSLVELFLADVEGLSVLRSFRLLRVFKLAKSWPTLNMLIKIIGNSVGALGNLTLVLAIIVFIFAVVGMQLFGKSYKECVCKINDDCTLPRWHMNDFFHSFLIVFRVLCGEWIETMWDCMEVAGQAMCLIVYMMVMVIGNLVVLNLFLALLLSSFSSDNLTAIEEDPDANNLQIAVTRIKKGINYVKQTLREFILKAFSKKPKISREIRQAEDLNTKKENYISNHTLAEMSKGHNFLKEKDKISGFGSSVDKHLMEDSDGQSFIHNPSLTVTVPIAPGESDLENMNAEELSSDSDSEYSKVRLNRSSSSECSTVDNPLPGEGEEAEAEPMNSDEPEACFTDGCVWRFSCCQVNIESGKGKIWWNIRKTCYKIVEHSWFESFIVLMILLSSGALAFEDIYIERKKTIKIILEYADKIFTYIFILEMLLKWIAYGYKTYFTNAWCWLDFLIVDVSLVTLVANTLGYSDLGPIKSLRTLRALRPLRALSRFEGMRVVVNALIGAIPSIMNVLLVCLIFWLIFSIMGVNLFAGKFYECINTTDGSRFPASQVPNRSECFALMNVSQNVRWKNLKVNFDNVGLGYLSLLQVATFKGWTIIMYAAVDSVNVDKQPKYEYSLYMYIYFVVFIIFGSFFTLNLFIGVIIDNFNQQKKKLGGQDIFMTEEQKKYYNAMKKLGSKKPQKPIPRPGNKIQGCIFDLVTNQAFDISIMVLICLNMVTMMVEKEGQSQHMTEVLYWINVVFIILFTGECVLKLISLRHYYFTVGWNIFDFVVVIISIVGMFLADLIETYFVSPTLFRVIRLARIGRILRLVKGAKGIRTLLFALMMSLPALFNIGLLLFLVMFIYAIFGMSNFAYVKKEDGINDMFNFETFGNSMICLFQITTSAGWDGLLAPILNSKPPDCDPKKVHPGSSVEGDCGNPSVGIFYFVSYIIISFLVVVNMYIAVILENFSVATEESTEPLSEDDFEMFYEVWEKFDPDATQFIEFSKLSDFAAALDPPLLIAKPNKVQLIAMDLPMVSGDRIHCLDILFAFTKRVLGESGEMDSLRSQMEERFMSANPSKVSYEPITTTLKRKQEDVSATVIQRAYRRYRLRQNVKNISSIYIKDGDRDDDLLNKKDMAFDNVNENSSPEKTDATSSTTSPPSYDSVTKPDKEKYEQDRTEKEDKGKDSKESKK

Compound	IC50 (in-vitro Nav 1.7 PX data)	further results
COc1cc(C)cc(-c2ccc(-n3c(=O)ccc4cc(S(=O)(=O)Nc5ccon5)ccc43)c(OC)c2)c1 [Example 784, 1-(3,3′-dimethoxy-5′-methyl-4-biphenylyl)-N-3-isoxazolyl-2-oxo-1,2-dihydro-6-quinolinesulfonamide]	20 nM	–
COc1cc(-c2cccc(C)c2)c(F)cc1-n1c(=O)ccc2cc(S(=O)(=O)Nc3ccon3)ccc21 (atropisomer, axis not shown; (P)) [Example 522, (P)-1-(2-fluoro-5-methoxy-3′-methyl-4-biphenylyl)-N-3-isoxazolyl-2-oxo-1,2-dihydro-6-quinolinesulfonamide]	–	IC50 (in-vitro PatchXpress (PX)): 9 nM
COc1ccc(-c2cc(F)cc(Cl)c2)cc1-n1c(=O)ccc2cc(S(=O)(=O)Nc3ccncn3)ccc21 (atropisomer, axis not shown; (M)) [Example 612, (M)-1-(3′-chloro-5′-fluoro-4-methoxy-3-biphenylyl)-2-oxo-N-4-pyrimidinyl-1,2-dihydro-6-quinolinesulfonamide]	355 nM	–
COc1ccc(-c2ccc(F)c(C#N)c2)cc1-n1c(=O)ccc2cc(S(=O)(=O)Nc3ccon3)ccc21 [Example 834, 1-(3′-cyano-4′-fluoro-4-methoxy-3-biphenylyl)-N-3-isoxazolyl-2-oxo-1,2-dihydro-6-quinolinesulfonamide]	294 nM	–
COc1cc(Cl)c(-c2cccc(F)c2)cc1-n1c(=O)ccc2cc(S(=O)(=O)Nc3ccon3)ccc21 (atropisomer, axis not shown; (P)) [Example 608, (P)-1-(6-chloro-3′-fluoro-4-methoxy-3-biphenylyl)-N-3-isoxazolyl-2-oxo-1,2-dihydro-6-quinolinesulfonamide]	12 nM	–
COc1ccc(-c2ccc(F)c(F)c2)cc1-n1c(=O)ccc2cc(S(=O)(=O)Nc3ccon3)ccc21 [Example 839, 1-(3′,4′-difluoro-4-methoxy-3-biphenylyl)-N-3-isoxazolyl-2-oxo-1,2-dihydro-6-quinolinesulfonamide]	113 nM	–
COc1nc(-c2ccc(F)cc2)c(Cl)cc1-n1c(=O)ccc2cc(S(=O)(=O)Nc3ccon3)ccc21 (atropisomer, axis not shown; (P)) [Example 1203, (P)-1-(5-chloro-6-(4-fluorophenyl)-2-methoxy-3-pyridinyl)-N-3-isoxazolyl-2-oxo-1,2-dihydro-6-quinolinesulfonamide]	–	IC50: 187 nM
COc1nc(OCc2ccc(F)cc2F)c(Cl)cc1-n1c(=O)ccc2cc(S(=O)(=O)Nc3ccon3)ccc21 [Example 1213, 1-(5-chloro-6-((2,4-difluorobenzyl)oxy)-2-methoxy-3-pyridinyl)-N-3-isoxazolyl-2-oxo-1,2-dihydro-6-quinolinesulfonamide]	–	IC50: 172 nM
O=c1ccc2cc(S(=O)(=O)Nc3cccnn3)ccc2n1-c1ccc(-c2cc(F)cc(F)c2)cc1C1CC1 [Example 1042, 1-(3-cyclopropyl-3′,5′-difluoro-4-biphenylyl)-2-oxo-N-3-pyridazinyl-1,2-dihydro-6-quinolinesulfonamide]	–	IC50 (in-vitro Nav 1.7 PX data (PatchXpress)): 195 nM

Continued, in another order:

IC50 (in-vitro Nav 1.7 PX data)	Compound	further results
90 nM	COc1cc(-c2ccccc2F)c(F)cc1-n1c(=O)ccc2cc(S(=O)(=O)Nc3ccon3)ccc21 [Example 951, 1-(2,2′-difluoro-5-methoxy-4-biphenylyl)-N-3-isoxazolyl-2-oxo-1,2-dihydro-6-quinolinesulfonamide]	–
1730 nM	COc1cc(C[C@@H]2C[C@@H]3CC[C@H]2O3)c(F)cc1-n1c(=O)ccc2cc(S(=O)(=O)Nc3ccon3)ccc21 [Example 1087, 1-(5-fluoro-2-methoxy-4-((1R,2R,4S)-7-oxabicyclo[2.2.1]hept-2-ylmethyl)phenyl)-N-3-isoxazolyl-2-oxo-1,2-dihydro-6-quinolinesulfonamide, 1-(5-fluoro-2-methoxy-4-((1S,2S,4R)-7-oxabicyclo[2.2.1]hept-2-ylmethyl)phenyl)-N-3-isoxazolyl-2-oxo-1,2-dihydro-6-quinolinesulfonamide]	–

— patent publication US9212182B2, “Bicyclic sulfonamide compounds as sodium channel inhibitors” (AMGEN INC., priority 2013, dated 2015)
